Measured values from US8975398B2, “NAMPT inhibitors” (AbbVie Inc., priority 2012, dated 2015).

Assays:
NAMPT = NAMPT (Homo sapiens, UniProt P43490); test: Time-Resolved Fluorescence Resonance Energy Transfer (TR-FRET) Binding Assay of NAMPT with PRPP; conditions: 2 nM NAMPT, 2 nM probe, 200 uM PRPP and 2.5 mM ATP, equilibrated 16 hours
In short: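 Binding measured by TR-FRET after a 16-hour equilibration meant to permit enzymatic compound modification. Substrates present at 200 uM PRPP and 2.5 mM ATP, with 2 nM enzyme, 2 nM probe, 1 nM Tb-anti-His antibody and 2% DMSO final.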

[1] = biological target: NAMPT (human, recombinant, C-terminally His-tagged) (Homo sapiens, UniProt P43490); test: Time-Resolved Fluorescence Resonance Energy Transfer (TR-FRET) Binding Assay of NAMPT; conditions: 6.8 nM NAMPT, 200 nM probe, equilibrated 3 hours, absence of substrates
Sequence of NAMPT (human, recombinant, C-terminally His-tagged) (P43490 whole entry): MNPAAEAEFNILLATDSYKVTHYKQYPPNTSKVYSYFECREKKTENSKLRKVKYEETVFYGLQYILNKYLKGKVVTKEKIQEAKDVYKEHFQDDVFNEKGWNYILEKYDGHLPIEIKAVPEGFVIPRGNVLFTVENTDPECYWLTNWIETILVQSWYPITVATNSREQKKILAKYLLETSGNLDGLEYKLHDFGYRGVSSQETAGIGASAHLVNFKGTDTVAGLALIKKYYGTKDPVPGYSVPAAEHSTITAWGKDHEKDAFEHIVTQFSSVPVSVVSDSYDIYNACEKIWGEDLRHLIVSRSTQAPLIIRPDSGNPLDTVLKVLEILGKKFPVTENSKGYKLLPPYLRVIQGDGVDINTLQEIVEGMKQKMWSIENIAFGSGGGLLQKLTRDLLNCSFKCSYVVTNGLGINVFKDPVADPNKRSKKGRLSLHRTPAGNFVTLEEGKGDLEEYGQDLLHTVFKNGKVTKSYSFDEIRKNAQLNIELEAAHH
In short: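 Probe displacement measured by TR-FRET (Ex 337 nm; 520/495 nm ratio) after 3 h room-temperature equilibration of compound with 6.8 nM His-tagged human NAMPT, 1 nM Tb-anti-His antibody and 200 nM Oregon Green 488 nicotinamide-site probe, pH 7.5 HEPES buffer, 2% DMSO. Control-normalized data fit four-parameter logistic for IC50.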

Sequence of NAMPT (P43490 whole entry): as above

Structure (SMILES) | IC50 (NAMPT) [nM] | IC50 [1] [nM]
O=C(Nc1ccc(C2CCN(C(=O)c3nccs3)CC2)cc1)C1CN(c2cccnc2)C1 [Example 108, 1-(pyridin-3-yl)-N-{4-[1-(1,3-thiazol-2-ylcarbonyl)piperidin-4-yl]phenyl}azetidine-3-carboxamide] | 0.176 | 3.33
C#CCCC(=O)N1CCC(c2ccc(NC(=O)C3CN(c4cccnn4)C3)cc2)CC1 [Example 338, N-{4-[1-(pent-4-ynoyl)piperidin-4-yl]phenyl}-1-(pyridazin-3-yl)azetidine-3-carboxamide] | 0.52 | 27.6
COCCOCC(=O)N1CCC(c2ccc(NC(=O)C3CN(c4cccnn4)C3)cc2)CC1 [Example 335, N-(4-{1-[(2-methoxyethoxy)acetyl]piperidin-4-yl}phenyl)-1-(pyridazin-3-yl)azetidine-3-carboxamide] | 1.02 | 210
CCOCC(=O)N1CCC(c2ccc(NC(=O)C3CN(c4cccnc4C)C3)cc2)CC1 [Example 191, N-{4-[1-(ethoxyacetyl)piperidin-4-yl]phenyl}-1-(2-methylpyridin-3-yl)azetidine-3-carboxamide] | 184 | 743
CC1CC1C(=O)N1CC(Oc2ccc(NC(=O)C3CN(c4ccnnc4)C3)cc2)C1 (centres unmarked) [Example 257, N-[4-({1-[(2-methylcyclopropyl)carbonyl]azetidin-3-yl}oxy)phenyl]-1-(pyridazin-4-yl)azetidine-3-carboxamide] | 41.9 | 64.7
CCC(C)(C)C(=O)N1CCC(Oc2ccc(NC(=O)C3CN(c4cccnn4)C3)cc2)CC1 [Example 248, N-(4-{[1-(2,2-dimethylbutanoyl)piperidin-4-yl]oxy}phenyl)-1-(pyridazin-3-yl)azetidine-3-carboxamide] | 0.817 | 82.6
CC[C@H](C)C(=O)N1CCC(Oc2ccc(NC(=O)[C@H]3CCN(c4cccnc4)C3)cc2)CC1 [Example 19, (3S)-N-[4-({1-[(2S)-2-methylbutanoyl]piperidin-4-yl}oxy)phenyl]-1-(pyridin-3-yl)pyrrolidine-3-carboxamide] | 0.554 | 1170
O=C(Nc1ccc(C2CCN(C(=O)c3cc(Cl)ccc3Cl)CC2)cc1)C1CN(c2cccnn2)C1 [Example 363, N-{4-[1-(2,5-dichlorobenzoyl)piperidin-4-yl]phenyl}-1-(pyridazin-3-yl)azetidine-3-carboxamide] | 0.798 | 10.4
O=C(Nc1ccc(OC2CCN(C(=O)C3CCCCC3)CC2)cc1)C1CN(c2cccnc2)C1 [Example 49, N-(4-{[1-(cyclohexylcarbonyl)piperidin-4-yl]oxy}phenyl)-1-(pyridin-3-yl)azetidine-3-carboxamide] | 1.02 | 66.1
Cc1ccncc1N1CC(C(=O)Nc2ccc(C3CCN(C(=O)C(C)(C)O)CC3)cc2)C1 [Example 72, N-{4-[1-(2-hydroxy-2-methylpropanoyl)piperidin-4-yl]phenyl}-1-(4-methylpyridin-3-yl)azetidine-3-carboxamide] | 7.34 | 6.54
Cc1ncccc1N1CC(C(=O)Nc2ccc(C3CCN(C(=O)C(C)(C)C)CC3)cc2)C1 [Example 185, N-{4-[1-(2,2-dimethylpropanoyl)piperidin-4-yl]phenyl}-1-(2-methylpyridin-3-yl)azetidine-3-carboxamide] | 44.1 | 81.3
Cc1ncccc1N1CC(C(=O)Nc2ccc(C3CCN(C(=O)c4ccccc4Cl)CC3)cc2)C1 [Example 151, N-{4-[1-(2-chlorobenzoyl)piperidin-4-yl]phenyl}-1-(2-methylpyridin-3-yl)azetidine-3-carboxamide] | 43.6 | 17.4
CC(C)C(=O)N1CC(Oc2ccc(NC(=O)C3CN(c4ccnnc4)C3)cc2)C1 [Example 264, N-(4-{[1-(2-methylpropanoyl)azetidin-3-yl]oxy}phenyl)-1-(pyridazin-4-yl)azetidine-3-carboxamide] | 13.4 | 52.8
Cc1ncccc1N1CC(C(=O)Nc2ccc(C3CCN(C(=O)c4ccoc4)CC3)cc2)C1 [Example 165, N-{4-[1-(furan-3-ylcarbonyl)piperidin-4-yl]phenyl}-1-(2-methylpyridin-3-yl)azetidine-3-carboxamide] | 68.3 | 35.2
O=C(Nc1ccc(OC2CCN(C(=O)C3CC3)CC2)cc1)C1CN(c2cccnn2)C1 [Example 251, N-(4-{[1-(cyclopropylcarbonyl)piperidin-4-yl]oxy}phenyl)-1-(pyridazin-3-yl)azetidine-3-carboxamide] | 0.88 | 230
CC(C)CN1CCC(c2ccc(NC(=O)C3CN(c4cccnc4)C3)cc2)CC1 [Example 94, N-{4-[1-(2-methylpropyl)piperidin-4-yl]phenyl}-1-(pyridin-3-yl)azetidine-3-carboxamide] | 1.03 | 2270

Structure (SMILES) | IC50 (NAMPT) [nM] | IC50 [1] [nM]
O=C(Nc1ccc(OC2CCN(C(=O)c3nccs3)CC2)cc1)C1CN(c2cccnn2)C1 [Example 213, 1-(pyridazin-3-yl)-N-(4-{[1-(1,3-thiazol-2-ylcarbonyl)piperidin-4-yl]oxy}phenyl)azetidine-3-carboxamide] | 0.678 | 104
O=C(Nc1ccc(OC2CCN(C(=O)Cc3cccc(F)c3)CC2)cc1)C1CN(c2cccnn2)C1 [Example 227, N-[4-({1-[(3-fluorophenyl)acetyl]piperidin-4-yl}oxy)phenyl]-1-(pyridazin-3-yl)azetidine-3-carboxamide] | 0.696 | 65.9
O=C(Nc1ccc(C2CCN(C(=O)CC3CCCC3)CC2)cc1)C1CN(c2cccnc2)C1 [Example 101, N-{4-[1-(cyclopentylacetyl)piperidin-4-yl]phenyl}-1-(pyridin-3-yl)azetidine-3-carboxamide] | 0.486 | 16.5
O=C(Nc1ccc(C2CCN(C(=O)c3ccoc3)CC2)cc1)C1CN(c2cccnn2)C1 [Example 375, N-{4-[1-(furan-3-ylcarbonyl)piperidin-4-yl]phenyl}-1-(pyridazin-3-yl)azetidine-3-carboxamide] | 0.679 | 6.72
CSCCC(=O)N1CCC(c2ccc(NC(=O)C3CN(c4cccnn4)C3)cc2)CC1 [Example 337, N-(4-{1-[3-(methylsulfanyl)propanoyl]piperidin-4-yl}phenyl)-1-(pyridazin-3-yl)azetidine-3-carboxamide] | 0.522 | 50
O=C(Nc1ccc(C2CCN(C(=O)C3CCCCC3)CC2)cc1)C1CN(c2cccnn2)C1 [Example 339, N-{4-[1-(cyclohexylcarbonyl)piperidin-4-yl]phenyl}-1-(pyridazin-3-yl)azetidine-3-carboxamide] | 0.663 | 17.9
CCC(CC)C(=O)N1CCC(c2ccc(NC(=O)C3CN(c4cccnn4)C3)cc2)CC1 [Example 328, N-{4-[1-(2-ethylbutanoyl)piperidin-4-yl]phenyl}-1-(pyridazin-3-yl)azetidine-3-carboxamide] | 0.614 | 12.2
Cc1ncccc1N1CC(C(=O)Nc2ccc(C3CCN(C(=O)[C@H]4CCC(=O)N4)CC3)cc2)C1 [Example 167, 1-(2-methylpyridin-3-yl)-N-{4-[1-(5-oxo-D-prolyl)piperidin-4-yl]phenyl}azetidine-3-carboxamide] | 204 | 3740
CN1CCN(CC(=O)N2CCC(c3ccc(NC(=O)C4CN(c5cccnc5)C4)cc3)CC2)CC1 [Example 113, N-(4-{1-[(4-methylpiperazin-1-yl)acetyl]piperidin-4-yl}phenyl)-1-(pyridin-3-yl)azetidine-3-carboxamide] | 0.254 | 60.6
CCC(C)CC(=O)N1CCC(c2ccc(NC(=O)C3CN(c4cccnc4)C3)cc2)CC1 (centres unmarked) [Example 99, N-{4-[1-(3-methylpentanoyl)piperidin-4-yl]phenyl}-1-(pyridin-3-yl)azetidine-3-carboxamide] | 0.169 | 13.5
O=C(Nc1ccc(C2CCN(C(=O)CC3C[C@@H]4CC[C@H]3C4)CC2)cc1)C1CN(c2cccnc2)C1 (stereo partly drawn) [Example 100, N-(4-{1-[(1S,4R)-bicyclo[2.2.1]hept-2-ylacetyl]piperidin-4-yl}phenyl)-1-(pyridin-3-yl)azetidine-3-carboxamide] | 0.497 | 30.6
CC1(C(=O)N2CCC(c3ccc(NC(=O)C4CN(c5cccnc5)C4)cc3)CC2)CCCCC1 [Example 117, N-(4-{1-[(1-methylcyclohexyl)carbonyl]piperidin-4-yl}phenyl)-1-(pyridin-3-yl)azetidine-3-carboxamide] | 0.355 | 6.27
O=C(Nc1ccc(C2CCN(C(=O)c3cccs3)CC2)cc1)C1CN(c2cccnc2)C1 [Example 127, 1-(pyridin-3-yl)-N-{4-[1-(thiophen-2-ylcarbonyl)piperidin-4-yl]phenyl}azetidine-3-carboxamide] | 0.391 | 3.64
C=CCCC(=O)N1CCC(c2ccc(NC(=O)C3CN(c4cccnn4)C3)cc2)CC1 [Example 331, N-{4-[1-(pent-4-enoyl)piperidin-4-yl]phenyl}-1-(pyridazin-3-yl)azetidine-3-carboxamide] | 0.83 | 24.9
O=C(Nc1ccc(OC2CCN(C(=O)CC3CCOCC3)CC2)cc1)C1CN(c2cccnc2)C1 [Example 1, 1-(pyridin-3-yl)-N-(4-{[1-(tetrahydro-2H-pyran-4-ylacetyl)piperidin-4-yl]oxy}phenyl)azetidine-3-carboxamide] | 0.386 | 120
